Experimental data taken from ChEMBL document CHEMBL4321792, “Discovery of 4-Methylquinazoline Based PI3K Inhibitors for the Potential Treatment of Idiopathic Pulmonary Fibrosis” (J Med Chem, 2019).
Activity calls are given as the source filed them. No cut-off for these calls is given here.

Columns and labels:
[1] = target: PI3-kinase p110-alpha/p85-alpha (Homo sapiens, UniProt P42336); experiment: Inhibition of recombinant human N-terminal FLAG-tagged full-length p110alpha/human p85alpha expressed in Sf9 insect cells using PIP2 as substrate by kinase-glo assay
[2] = Apparent permeability across apical to basolateral side in human Caco2 cells measured after 90 mins by LC-MS/MS analysis; details: Caco-2
[3] = Antifibrotic activity against mouse Mlg2908 cells assessed as reduction in cell viability measured after 72 hrs by MTT assay; type: functional, cell-based
[4] = Apparent permeability across basolateral to apical side in human Caco2 cells measured after 90 mins by LC-MS/MS analysis; details: Caco-2
[5] = Cmax in ICR mouse at 5 mg/kg, po by LC-MS/SM analysis; type: ADME, organism-based; design: dose 5 mg/kg, route oral; details: in vivo
[6] = AUC (0 to infinity) in ICR mouse at 5 mg/kg, po by LC-MS/SM analysis; type: ADME, organism-based; design: dose 5 mg/kg, route oral, time infinity; details: in vivo
[7] = Volume of distribution at steady state in ICR mouse at 0.5 mg/kg, iv by LC-MS/SM analysis; type: ADME, organism-based; details: in vivo, read-out: Vdss
Mus musculus [8] = organism: Mus musculus; experiment: Inhibition of class 1 PI3K in mouse Mlg2908 cells assessed as reduction in AKT phosphorylation at T308 residue measured after 3 hrs by Western blot analysis; type: cell-based
Mus musculus [9] = organism: Mus musculus; experiment: Inhibition of class 1 PI3K in mouse Mlg2908 cells assessed as reduction in S6RP phosphorylation measured after 3 hrs by Western blot analysis; type: cell-based
[10] = AUC (0 to infinity) in ICR mouse at 0.5 mg/kg, iv by LC-MS/SM analysis; type: ADME, organism-based; design: dose 0.5 mg/kg, time infinity, route intravenous; details: in vivo
[11] = Half life in ICR mouse at 5 mg/kg, po by LC-MS/SM analysis; type: ADME, organism-based; details: in vivo
Mus musculus [12] = organism: Mus musculus; experiment: Inhibition of class 1 PI3K in mouse Mlg2908 cells assessed as reduction in AKT phosphorylation at S473 residue measured after 3 hrs by Western blot analysis; type: cell-based
[13] = Half life in ICR mouse at 0.5 mg/kg, iv by LC-MS/SM analysis; type: ADME, organism-based; details: in vivo
[14] = Clearance in ICR mouse at 0.5 mg/kg, iv by LC-MS/SM analysis; type: ADME, organism-based; details: in vivo
[15] = target: PI3-kinase p110-delta/p85-alpha (Homo sapiens, UniProt O00329); experiment: Inhibition of recombinant human N-terminal GST-tagged full-length p110delta/human p85alpha expressed in Sf9 insect cells using PIP2 as substrate by ADP-glo assay
[16] = target: Phosphatidylinositol 4,5-bisphosphate 3-kinase catalytic subunit gamma isoform (Homo sapiens, UniProt P48736); experiment: Inhibition of recombinant human N-terminal His-tagged full-length p120gamma expressed in Sf9 insect cells using PIP2 as substrate by ADP-glo assay
PI3K p110 beta/p85 alpha = PI3K p110 beta/p85 alpha (Homo sapiens, UniProt P42338); experiment: Inhibition of recombinant human N-terminal FLAG-tagged full-length p110beta/human p85alpha expressed in Sf9 insect cells using PIP2 as substrate by ADP-glo assay
Mus musculus [17] = organism: Mus musculus; experiment: Inhibition of class 1 PI3K in mouse Mlg2908 cells assessed as reduction in p70S6K phosphorylation measured after 3 hrs by Western blot analysis; type: cell-based
[18] = Oral bioavailability in ICR mouse at 5 mg/kg by LC-MS/SM analysis; type: ADME, organism-based; details: in vivo
Mus musculus [19] = experiment: (§1) Antifibrotic activity in bleomycin-induced C57BL/6 mouse model of pulmonary fibrosis assessed as reduction in lung fibronectin level at 30 mg/kg, po administered thrice daily for 18 days starting from 10 days post-bleomycin challenge and measured post last dose by Western blot analysis; type: functional, organism-based
Mus musculus [20] = experiment: as §1, with “damage” for “fibronectin level”, “H and E staining-based histopathological” for “Western blot”; type: functional, organism-based
Mus musculus [21] = experiment: Antifibrotic activity in bleomycin-induced C57BL/6 mouse model of pulmonary fibrosis assessed as reduction in respiratory system elastance at 30 mg/kg, po administered thrice daily for 18 days starting from 10 days post-bleomycin challenge and measured post last dose; type: functional, organism-based
Mus musculus [22] = experiment: as §1, with “collagen fiber deposition” for “lung fibronectin level”, “Masson staining-based histopathological” for “Western blot”; type: functional, organism-based
Mus musculus [23] = experiment: Antifibrotic activity in bleomycin-induced C57BL/6 mouse model of pulmonary fibrosis assessed as reduction in inspiratory capacity at 30 mg/kg, po administered thrice daily for 18 days starting from 10 days post-bleomycin challenge and measured post last dose; type: functional, organism-based
Mus musculus [24] = experiment: Antifibrotic activity in bleomycin-induced C57BL/6 mouse model of pulmonary fibrosis assessed as reduction in respiratory system compliance at 30 mg/kg, po administered thrice daily for 18 days starting from 10 days post-bleomycin challenge and measured post last dose; type: functional, organism-based
Mus musculus [25] = experiment: Antifibrotic activity in bleomycin-induced C57BL/6 mouse model of pulmonary fibrosis assessed as reduction in lung hydroxyproline level at 30 mg/kg, po administered thrice daily for 18 days starting from 10 days post-bleomycin challenge and measured post last dose; type: functional, organism-based
Mus musculus [26] = experiment: Antifibrotic activity in bleomycin-induced C57BL/6 mouse model of pulmonary fibrosis assessed as reduction in respiratory system resistance at 30 mg/kg, po administered thrice daily for 18 days starting from 10 days post-bleomycin challenge and measured post last dose; type: functional, organism-based
Mus musculus [27] = experiment: as §1, with “alpha-SMA” for “fibronectin”, “immunostaining-based histopathological” for “Western blot”; type: functional, organism-based
Mus musculus [28] = experiment: Antifibrotic activity in bleomycin-induced C57BL/6 mouse model of pulmonary fibrosis assessed as reduction in lung index at 30 mg/kg, po administered thrice daily for 18 days starting from 10 days post-bleomycin challenge and measured post last dose; type: functional, organism-based
[29] = Kinetic solubility of the compound in pH 7.4 incubated for 120 mins by HPLC-MS/MS analysis; details: buffer, pH 7.4, 2 h
[30] = simulated gi fluid, pH 6.5, 1 h
Description: Thermodynamic solubility of the compound in pH 6.5 FaSSIF incubated for 1 hr by LC-MS/MS analysis

[31] = buffer, pH 7.4, 1 h
Description: Thermodynamic solubility of the compound in pH 7.4 PBS incubated for 1 hr by LC-MS/MS analysis

Chain of PI3-kinase p110-alpha/p85-alpha (P27986 whole entry): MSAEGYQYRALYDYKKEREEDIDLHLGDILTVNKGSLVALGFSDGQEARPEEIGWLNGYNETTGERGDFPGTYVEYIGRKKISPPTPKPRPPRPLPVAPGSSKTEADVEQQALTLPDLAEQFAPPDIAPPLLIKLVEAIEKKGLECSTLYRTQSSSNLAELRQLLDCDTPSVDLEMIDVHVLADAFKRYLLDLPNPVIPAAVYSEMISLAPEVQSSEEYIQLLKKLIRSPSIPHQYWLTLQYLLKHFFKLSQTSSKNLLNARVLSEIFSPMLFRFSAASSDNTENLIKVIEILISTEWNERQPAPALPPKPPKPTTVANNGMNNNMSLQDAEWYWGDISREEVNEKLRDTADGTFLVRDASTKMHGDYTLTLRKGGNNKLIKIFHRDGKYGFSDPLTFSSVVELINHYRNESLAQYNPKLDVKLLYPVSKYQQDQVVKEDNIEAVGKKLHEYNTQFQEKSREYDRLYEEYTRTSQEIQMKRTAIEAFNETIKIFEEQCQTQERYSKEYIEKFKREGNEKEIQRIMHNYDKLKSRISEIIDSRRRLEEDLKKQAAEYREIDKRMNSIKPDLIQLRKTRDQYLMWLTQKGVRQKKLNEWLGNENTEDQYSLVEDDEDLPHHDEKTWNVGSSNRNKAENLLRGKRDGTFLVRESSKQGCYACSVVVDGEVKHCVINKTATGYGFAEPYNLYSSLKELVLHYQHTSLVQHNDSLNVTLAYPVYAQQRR
Chain of PI3-kinase p110-alpha/p85-alpha (P42336 whole entry): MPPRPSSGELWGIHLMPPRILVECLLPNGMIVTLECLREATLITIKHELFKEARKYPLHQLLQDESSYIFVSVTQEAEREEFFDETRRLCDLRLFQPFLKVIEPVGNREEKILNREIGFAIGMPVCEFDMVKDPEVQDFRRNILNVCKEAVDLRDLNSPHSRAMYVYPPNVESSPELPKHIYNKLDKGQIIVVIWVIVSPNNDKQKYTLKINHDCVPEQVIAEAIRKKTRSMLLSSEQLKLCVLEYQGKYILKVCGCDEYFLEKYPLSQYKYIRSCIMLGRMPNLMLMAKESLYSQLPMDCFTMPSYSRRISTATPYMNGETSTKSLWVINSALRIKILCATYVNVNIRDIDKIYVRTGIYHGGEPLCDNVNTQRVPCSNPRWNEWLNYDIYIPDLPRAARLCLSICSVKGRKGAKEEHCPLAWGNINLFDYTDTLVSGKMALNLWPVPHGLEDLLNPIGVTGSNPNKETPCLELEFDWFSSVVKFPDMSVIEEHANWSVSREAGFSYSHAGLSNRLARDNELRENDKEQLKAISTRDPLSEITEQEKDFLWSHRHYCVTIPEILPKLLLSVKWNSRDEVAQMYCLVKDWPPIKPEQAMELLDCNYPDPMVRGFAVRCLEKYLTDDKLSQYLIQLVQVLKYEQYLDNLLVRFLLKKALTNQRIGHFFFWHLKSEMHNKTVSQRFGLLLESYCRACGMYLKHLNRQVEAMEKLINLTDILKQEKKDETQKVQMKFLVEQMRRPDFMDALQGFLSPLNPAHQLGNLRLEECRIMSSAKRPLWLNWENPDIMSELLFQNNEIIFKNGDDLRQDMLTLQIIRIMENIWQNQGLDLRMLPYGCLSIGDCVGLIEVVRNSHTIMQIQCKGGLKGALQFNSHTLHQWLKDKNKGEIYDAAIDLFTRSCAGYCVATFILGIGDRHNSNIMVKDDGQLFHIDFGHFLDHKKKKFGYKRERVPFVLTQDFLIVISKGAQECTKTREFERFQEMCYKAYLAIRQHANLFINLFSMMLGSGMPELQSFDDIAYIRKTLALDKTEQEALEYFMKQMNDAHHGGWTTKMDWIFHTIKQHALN
Chain of Phosphatidylinositol 4,5-bisphosphate 3-kinase catalytic subunit gamma isoform (P48736 whole entry, canonical isoform): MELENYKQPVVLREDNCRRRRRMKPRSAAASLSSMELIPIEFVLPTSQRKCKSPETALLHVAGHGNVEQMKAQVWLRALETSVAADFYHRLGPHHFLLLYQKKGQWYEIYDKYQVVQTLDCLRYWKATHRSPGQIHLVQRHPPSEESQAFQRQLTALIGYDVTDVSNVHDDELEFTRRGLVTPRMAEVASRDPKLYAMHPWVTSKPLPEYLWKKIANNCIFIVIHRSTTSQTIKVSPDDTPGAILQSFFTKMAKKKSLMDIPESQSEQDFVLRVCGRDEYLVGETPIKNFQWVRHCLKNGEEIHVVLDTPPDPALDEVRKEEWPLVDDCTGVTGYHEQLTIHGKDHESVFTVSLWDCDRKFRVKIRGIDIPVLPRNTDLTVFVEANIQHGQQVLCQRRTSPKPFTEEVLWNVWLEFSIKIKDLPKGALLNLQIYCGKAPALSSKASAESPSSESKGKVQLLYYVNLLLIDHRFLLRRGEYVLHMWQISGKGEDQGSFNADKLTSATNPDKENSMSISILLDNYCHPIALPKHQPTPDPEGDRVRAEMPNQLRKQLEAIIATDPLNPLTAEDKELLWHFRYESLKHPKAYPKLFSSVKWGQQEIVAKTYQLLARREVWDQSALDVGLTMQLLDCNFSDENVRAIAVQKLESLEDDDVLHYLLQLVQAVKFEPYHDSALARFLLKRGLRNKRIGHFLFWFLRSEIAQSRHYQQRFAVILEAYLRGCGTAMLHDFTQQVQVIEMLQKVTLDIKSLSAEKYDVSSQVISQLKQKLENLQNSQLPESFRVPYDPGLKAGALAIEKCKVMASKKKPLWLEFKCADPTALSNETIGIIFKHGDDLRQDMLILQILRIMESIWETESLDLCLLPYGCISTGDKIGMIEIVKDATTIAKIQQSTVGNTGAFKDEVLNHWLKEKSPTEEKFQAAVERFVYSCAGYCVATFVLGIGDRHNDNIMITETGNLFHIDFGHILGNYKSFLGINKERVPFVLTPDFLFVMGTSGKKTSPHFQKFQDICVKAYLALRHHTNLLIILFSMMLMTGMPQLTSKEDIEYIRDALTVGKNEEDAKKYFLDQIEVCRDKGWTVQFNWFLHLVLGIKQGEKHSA
Chain of PI3-kinase p110-delta/p85-alpha (P27986 whole entry, canonical isoform): as the sequence (P27986 whole entry) above
Chain of PI3-kinase p110-delta/p85-alpha (O00329 whole entry, canonical isoform): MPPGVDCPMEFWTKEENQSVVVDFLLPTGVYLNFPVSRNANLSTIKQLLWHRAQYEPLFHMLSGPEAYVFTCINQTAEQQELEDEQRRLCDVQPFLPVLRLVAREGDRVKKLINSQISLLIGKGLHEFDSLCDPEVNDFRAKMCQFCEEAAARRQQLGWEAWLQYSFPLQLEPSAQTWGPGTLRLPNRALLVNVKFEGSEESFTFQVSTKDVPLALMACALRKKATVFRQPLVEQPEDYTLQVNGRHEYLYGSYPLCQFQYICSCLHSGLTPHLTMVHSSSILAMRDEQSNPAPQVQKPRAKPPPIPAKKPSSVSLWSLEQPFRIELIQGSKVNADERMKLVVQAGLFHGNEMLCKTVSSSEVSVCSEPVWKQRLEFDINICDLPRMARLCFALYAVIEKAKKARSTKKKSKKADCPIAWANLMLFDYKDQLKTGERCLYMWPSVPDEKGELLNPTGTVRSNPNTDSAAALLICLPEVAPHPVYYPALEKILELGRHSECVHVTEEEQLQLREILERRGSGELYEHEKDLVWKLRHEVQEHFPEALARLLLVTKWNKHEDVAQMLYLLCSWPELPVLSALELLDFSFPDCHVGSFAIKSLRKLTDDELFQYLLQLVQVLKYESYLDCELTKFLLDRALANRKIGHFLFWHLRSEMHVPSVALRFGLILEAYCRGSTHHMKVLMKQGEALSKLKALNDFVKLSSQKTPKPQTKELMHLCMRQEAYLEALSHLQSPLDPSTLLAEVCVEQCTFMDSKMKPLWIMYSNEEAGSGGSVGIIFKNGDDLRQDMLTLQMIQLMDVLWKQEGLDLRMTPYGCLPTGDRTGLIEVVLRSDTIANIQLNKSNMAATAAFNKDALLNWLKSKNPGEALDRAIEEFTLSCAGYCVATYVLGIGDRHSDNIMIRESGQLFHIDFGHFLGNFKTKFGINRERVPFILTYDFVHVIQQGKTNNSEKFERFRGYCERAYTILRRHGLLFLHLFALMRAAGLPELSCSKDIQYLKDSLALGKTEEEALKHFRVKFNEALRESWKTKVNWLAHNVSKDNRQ
Chain of PI3K p110 beta/p85 alpha (P27986 whole entry): as the sequence (P27986 whole entry) above
Chain of PI3K p110 beta/p85 alpha (P42338 whole entry): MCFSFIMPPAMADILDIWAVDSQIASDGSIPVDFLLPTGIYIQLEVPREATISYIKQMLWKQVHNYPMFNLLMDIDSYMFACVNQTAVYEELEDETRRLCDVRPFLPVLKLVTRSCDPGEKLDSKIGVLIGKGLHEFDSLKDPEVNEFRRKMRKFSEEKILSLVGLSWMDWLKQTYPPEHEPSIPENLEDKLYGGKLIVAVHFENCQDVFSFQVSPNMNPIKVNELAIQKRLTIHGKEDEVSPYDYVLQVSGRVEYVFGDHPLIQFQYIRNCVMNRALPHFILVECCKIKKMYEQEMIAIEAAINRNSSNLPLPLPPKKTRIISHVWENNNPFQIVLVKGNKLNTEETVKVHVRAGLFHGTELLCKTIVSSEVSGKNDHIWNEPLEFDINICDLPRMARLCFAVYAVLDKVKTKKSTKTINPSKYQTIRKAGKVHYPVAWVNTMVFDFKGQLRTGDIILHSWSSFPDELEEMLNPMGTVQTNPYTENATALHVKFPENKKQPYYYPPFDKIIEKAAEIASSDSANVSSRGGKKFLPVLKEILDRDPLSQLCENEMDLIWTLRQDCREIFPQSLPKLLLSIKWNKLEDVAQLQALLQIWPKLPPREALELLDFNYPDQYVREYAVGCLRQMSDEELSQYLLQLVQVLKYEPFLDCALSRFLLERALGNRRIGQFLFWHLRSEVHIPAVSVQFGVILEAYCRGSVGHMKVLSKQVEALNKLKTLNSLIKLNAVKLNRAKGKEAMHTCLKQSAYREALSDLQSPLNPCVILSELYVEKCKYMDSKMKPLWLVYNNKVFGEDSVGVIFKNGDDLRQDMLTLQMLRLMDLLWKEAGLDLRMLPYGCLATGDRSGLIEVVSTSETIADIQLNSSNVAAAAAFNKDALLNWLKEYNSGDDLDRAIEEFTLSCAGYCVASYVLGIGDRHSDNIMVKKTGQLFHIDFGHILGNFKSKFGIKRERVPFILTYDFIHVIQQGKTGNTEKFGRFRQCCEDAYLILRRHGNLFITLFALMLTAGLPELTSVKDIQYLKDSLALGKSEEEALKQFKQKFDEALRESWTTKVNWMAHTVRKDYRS

| SMILES | IC50 [1] [nM] | Papp A→B at 1.5 h [2] [nm/s] | IC50 [3] [nM] | Papp B→A at 1.5 h [4] [nm/s] | also measured |
| --- | --- | --- | --- | --- | --- |
| COc1ncc(-c2cc(OC3CCC3)c3ncnc(C)c3c2)cc1NS(=O)(=O)c1ccc(F)cc1F | 1 | 440 | 3 | 300 | – |
| COc1ncc(-c2cc(OC3CCCC3)c3ncnc(C)c3c2)cc1NS(=O)(=O)c1ccc(F)cc1F | 1 | 280 | 15 | 170 | – |
| C[C@H](NC(=O)c1c(N)nn2cccnc12)c1cc2cccc(C#Cc3cnn(C)c3)c2c(=O)n1-c1ccccc1 [EGANELISIB] | – | – | 980 | – | – |
| COc1ncc(-c2ccc3nccc(-c4ccnnc4)c3c2)cc1NS(=O)(=O)c1ccc(F)cc1F [OMIPALISIB] | – | – | 4 | – | – |
| COc1ncc(-c2cc(OC(C)C)c3ncnc(C)c3c2)cc1NS(=O)(=O)c1ccc(F)cc1F | 2 | 320 | 13 | 220 | – |
| Cc1c(Cn2c(C)nc3c(C(=O)O)cc(N4CCOCC4)cc32)cccc1C(F)(F)F [GSK-2636771] | – | – | > 20000 | – | – |
| COc1ncc(-c2cc(OCC3CCOCC3)c3ncnc(C)c3c2)cc1NS(=O)(=O)c1ccc(F)cc1F | 0.92 | 310 | 8 | 330 | – |
| COc1ncc(-c2cc(OC3CCCCC3)c3ncnc(C)c3c2)cc1NS(=O)(=O)c1ccc(F)cc1F | 1.5 | 160 | 33 | 210 | – |
| COc1ncc(-c2cc(OC3CCOC(C)(C)C3)c3ncnc(C)c3c2)cc1NS(=O)(=O)c1ccc(F)cc1F (configuration not stated) | 0.89 | 310 | 2 | 220 | – |
| COc1ncc(-c2cc(OC3CCN(C)CC3)c3ncnc(C)c3c2)cc1NS(=O)(=O)c1ccc(F)cc1F | 2.1 | 45 | 230 | 460 | – |
| COc1ncc(-c2cc(OC)c3ncnc(C)c3c2)cc1NS(=O)(=O)c1ccc(F)cc1F | 1.2 | 350 | 130 | 310 | – |
| COc1ncc(-c2cc(OC3CCOCC3)c3nc(N)nc(C)c3c2)cc1NS(=O)(=O)c1ccc(F)cc1F | – | – | 140 | – | – |
| COc1ncc(-c2cc(OCCN3CCCC3)c3ncnc(C)c3c2)cc1NS(=O)(=O)c1ccc(F)cc1F | 6.8 | 75 | 1300 | 380 | – |
| COc1ncc(-c2cc(OCCN3CCOCC3)c3ncnc(C)c3c2)cc1NS(=O)(=O)c1ccc(F)cc1F | 2.3 | 130 | 210 | 330 | – |
| Cc1nc(NC(=O)N2CCC[C@H]2C(N)=O)sc1-c1ccnc(C(C)(C)C(F)(F)F)c1 [ALPELISIB] | – | – | 3500 | – | – |
| COc1ncc(-c2cc(O[C@@H]3CCOC3)c3ncnc(C)c3c2)cc1NS(=O)(=O)c1ccc(F)cc1F | 0.88 | 380 | 10 | 370 | Cmax [5]: 1.44 µg/mL; AUC(0-inf) [6]: 3.17 µg·h/mL; Vd [7]: 0.5 L/kg; inhibition (Mus musculus [8]): Dose-dependent effect; inhibition (Mus musculus [9]): Dose-dependent effect; AUC(0-inf) [10]: 0.52 µg·h/mL; half-life [11]: 4.08 h; inhibition (Mus musculus [12]): Dose-dependent effect; half-life [13]: 0.36 h; clearance [14]: 0.961 L/h/kg; IC50 [15]: 0.35 nM; IC50 [16]: 1.5 nM; IC50 (PI3K p110 beta/p85 alpha): 0.34 nM; inhibition (Mus musculus [17]): Dose-dependent effect; bioavailability [18]: 58.7% |
| Cc1ccc(=O)n(-c2ccccc2)c1 | – | – | – | – | Activity (Mus musculus [19]): Active; Activity (Mus musculus [20]): Active; Activity (Mus musculus [21]): Active; Activity (Mus musculus [22]): Active; Activity (Mus musculus [23]): Active; Activity (Mus musculus [24]): Active; Activity (Mus musculus [25]): Active; Activity (Mus musculus [26]): Active; Activity (Mus musculus [27]): Active; Activity (Mus musculus [28]): Active |
| COc1ccc(-c2cc(OC3CCOCC3)c3ncnc(C)c3c2)cn1 | 31 | 390 | 17000 | 310 | – |
| CC[C@H](Nc1ncnc2[nH]cnc12)c1nc2cccc(F)c2c(=O)n1-c1ccccc1 [IDELALISIB] | – | – | > 20000 | – | – |
| COc1ncc(-c2cc(OCC3CCOC3)c3ncnc(C)c3c2)cc1NS(=O)(=O)c1ccc(F)cc1F (configuration not stated) | 0.95 | 340 | 4 | 390 | – |
| COc1ncc(-c2cc(OCC3CCN(C)CC3)c3ncnc(C)c3c2)cc1NS(=O)(=O)c1ccc(F)cc1F | 1.6 | 88 | 81 | 380 | – |
| COc1ncc(-c2cc(OC3CCOCC3)c3ncnc(C)c3c2)cc1NS(=O)(=O)c1ccc(F)cc1F | 0.6 | 420 | 3 | 390 | Cmax [5]: 1.21 µg/mL; Kinetic_solubility [29]: Soluble; Therm_solubility [30]: Soluble; AUC(0-inf) [6]: 3.24 µg·h/mL; Vd [7]: 0.368 L/kg; inhibition (Mus musculus [8]): Dose-dependent effect; inhibition (Mus musculus [9]): Dose-dependent effect; Therm_solubility [31]: Soluble; AUC(0-inf) [10]: 1.82 µg·h/mL; half-life [11]: 5.57 h; inhibition (Mus musculus [12]): Dose-dependent effect; half-life [13]: 0.92 h; clearance [14]: 0.275 L/h/kg; IC50 [15]: 0.52 nM; IC50 [16]: 2.1 nM; IC50 (PI3K p110 beta/p85 alpha): 0.54 nM; inhibition (Mus musculus [17]): Dose-dependent effect; bioavailability [18]: 15.8% |
| COc1ncc(-c2cc(OC(F)F)c3ncnc(C)c3c2)cc1NS(=O)(=O)c1ccc(F)cc1F | 1.7 | 340 | 130 | 170 | – |
| COc1ncc(-c2cc(OCCN(C)C)c3ncnc(C)c3c2)cc1NS(=O)(=O)c1ccc(F)cc1F | 5.3 | 100 | 460 | 510 | – |
| COc1ncc(-c2cc(OCC3CC3)c3ncnc(C)c3c2)cc1NS(=O)(=O)c1ccc(F)cc1F | 1.5 | 300 | 20 | 230 | – |
| C[C@H](Nc1ncnc2nc[nH]c12)c1cc2cccc(Cl)c2c(=O)n1-c1ccccc1 [DUVELISIB] | – | – | 6900 | – | – |
